Reference: PubChem BioAssay (NCI)
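Each compound was tested at five concentrations against cells in 96-well plates for 48 hours. GI50 = concentration required for 50% inhibition of growth. The concentration for full growth arrest is given as TGI.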

Columns and labels:
Experiment in all cases: inhibition of tumour cell growth, NCI panel, 48 h
[1] = tested on: 786-0 renal
[2] = tested on: A498 renal
[3] = tested on: A549 NSCLC
[4] = tested on: ACHN renal
[5] = tested on: BT-549 breast
[6] = tested on: CAKI-1 renal
[7] = tested on: CCRF-CEM leukemia
[8] = tested on: COLO 205 colon
[9] = tested on: DU-145 prostate
[10] = tested on: EKVX NSCLC
[11] = tested on: HCC-2998 colon
[12] = tested on: HCT-116 colon
[13] = tested on: HCT-15 colon
[14] = tested on: HL-60(TB) leukemia
[15] = tested on: HOP-62 NSCLC
[16] = tested on: HOP-92 NSCLC
[17] = tested on: HS 578T breast
[18] = tested on: HT29 colon
[19] = tested on: IGROV1 ovarian
[20] = tested on: K-562 leukemia
[21] = tested on: KM12 colon
[22] = tested on: LOX IMVI melanoma
[23] = tested on: M14 melanoma
[24] = tested on: MALME-3M melanoma
[25] = tested on: MCF7 breast
[26] = tested on: MDA-MB-231 breast
[27] = tested on: MDA-MB-435
[28] = tested on: MOLT-4 leukemia
[29] = tested on: NCI-H226 lung
[30] = tested on: NCI-H23 lung
[31] = tested on: NCI-H460 lung
[32] = tested on: NCI-H522 lung
[33] = tested on: NCI/ADR-RES ovarian
[34] = tested on: OVCAR-4 ovarian
[35] = tested on: OVCAR-5 ovarian
[36] = tested on: OVCAR-8 ovarian
[37] = tested on: PC-3 prostate
[38] = tested on: RPMI-8226 leukemia
[39] = tested on: RXF 393 renal
[40] = tested on: SF-268 CNS
[41] = tested on: SF-295 CNS
[42] = tested on: SF-539 CNS
[43] = tested on: SK-MEL-2 melanoma
[44] = tested on: SK-MEL-28 melanoma
[45] = tested on: SK-MEL-5 melanoma
[46] = tested on: SK-OV-3 ovarian
[47] = tested on: SN12C renal
[48] = tested on: SNB-19 CNS
[49] = tested on: SNB-75 CNS
[50] = tested on: SR leukemia
[51] = tested on: SW-620 colon
[52] = tested on: T-47D breast
[53] = tested on: TK-10 renal
[54] = tested on: U251 CNS
[55] = tested on: UACC-257 melanoma
[56] = tested on: UACC-62 melanoma
[57] = tested on: UO-31 renal

For `COC(=O)C[Se]C(=O)Cc1c(C)n(C(=O)c2ccc(Cl)cc2)c2ccc(OC)cc12`, the GI50 [1] was 2.64 µM, the TGI [1] was 6.58 µM and the GI50 [2] was 2.43 µM. For the same compound, the TGI [2] was 6.36 µM, the GI50 [3] was 1.96 µM and the TGI [3] was 4.63 µM. The GI50 [4] was 3.36 µM, the TGI [4] was 10.2 µM and the GI50 [5] was 1.91 µM. It also gave a TGI [5] of 4.21 µM, a GI50 [6] of 2.63 µM and a TGI [6] of 6.85 µM. The GI50 [7] was 3.04 µM, the TGI [7] was 16.8 µM and the GI50 [8] was 1.83 µM. For the same compound, the TGI [8] was 4.4 µM, the GI50 [9] was 2.72 µM and the TGI [9] was 8.01 µM. It also gave a GI50 [10] of 1.71 µM, a TGI [10] of 4.26 µM and a GI50 [11] of 4.96 µM. It also gave a TGI [11] of 16.9 µM, a GI50 [12] of 1.8 µM and a TGI [12] of 4.21 µM. For the same compound, the GI50 [13] was 2.2 µM, the TGI [13] was 6.03 µM and the GI50 [14] was 2.9 µM. The TGI [14] was 19.7 µM, the GI50 [15] was 1.74 µM and the TGI [15] was 4.14 µM. It also gave a GI50 [16] of 1.98 µM, a TGI [16] of 4.27 µM and a GI50 [17] of 2.33 µM. For the same compound, the TGI [17] was 8.84 µM, the GI50 [18] was 2.84 µM and the TGI [18] was 8.17 µM. For the same compound, the GI50 [19] was 2.1 µM, the TGI [19] was 4.91 µM and the GI50 [20] was 5.3 µM. The TGI [20] was greater than 100 µM, the GI50 [21] was 3.06 µM and the TGI [21] was 12.6 µM. The GI50 [22] was 1.81 µM, the TGI [22] was 3.79 µM and the GI50 [23] was 1.64 µM. For the same compound, the TGI [23] was 4.91 µM, the GI50 [24] was 1.81 µM and the TGI [24] was 5.31 µM. For the same compound, the GI50 [25] was 2.57 µM, the TGI [25] was 11.3 µM and the GI50 [26] was 2.27 µM. It also gave a TGI [26] of 5.89 µM, a GI50 [27] of 1.75 µM and a TGI [27] of 3.43 µM. For the same compound, the GI50 [28] was 5.29 µM, the TGI [28] was 90.1 µM and the GI50 [29] was 2.03 µM. For the same compound, the TGI [29] was 6.53 µM, the GI50 [30] was 2.41 µM and the TGI [30] was 6.41 µM. For the same compound, the GI50 [31] was 2.62 µM, the TGI [31] was 8.34 µM and the GI50 [32] was 9.61 µM. For the same compound, the TGI [32] was 28.8 µM, the GI50 [33] was 2.41 µM and the TGI [33] was 6.92 µM. The GI50 [34] was 2.27 µM, the TGI [34] was 8.1 µM and the GI50 [35] was 2.21 µM. It also gave a TGI [35] of 6 µM, a GI50 [36] of 2.27 µM and a TGI [36] of 6.22 µM. The GI50 [37] was 3.91 µM, the TGI [37] was 15.5 µM and the GI50 [38] was 3.36 µM. The TGI [38] was 22.9 µM, the GI50 [39] was 1.73 µM and the TGI [39] was 5.28 µM. The GI50 [40] was 3.18 µM, the TGI [40] was 12.3 µM and the GI50 [41] was 2.21 µM. It also gave a TGI [41] of 4.92 µM, a GI50 [42] of 2.7 µM and a TGI [42] of 7.69 µM. For the same compound, the GI50 [43] was 2.44 µM, the TGI [43] was 7.79 µM and the GI50 [44] was 3.26 µM. The TGI [44] was 12 µM, the GI50 [45] was 1.83 µM and the TGI [45] was 3.42 µM. For the same compound, the GI50 [46] was 5.57 µM, the TGI [46] was 19.2 µM and the GI50 [47] was 3.09 µM. For the same compound, the TGI [47] was 10.9 µM, the GI50 [48] was 3.32 µM and the TGI [48] was 12.4 µM. For the same compound, the GI50 [49] was 1.8 µM, the TGI [49] was 4.17 µM and the GI50 [50] was 3.74 µM. For the same compound, the TGI [50] was greater than 100 µM, the GI50 [51] was 2.03 µM and the TGI [51] was 4.39 µM. For the same compound, the GI50 [52] was 7.32 µM, the TGI [52] was 38 µM and the GI50 [53] was 3.72 µM. It also gave a TGI [53] of 18.2 µM, a GI50 [54] of 2.38 µM and a TGI [54] of 5.8 µM. For the same compound, the GI50 [55] was 2.17 µM, the TGI [55] was 7.37 µM and the GI50 [56] was 2.85 µM. It also gave a TGI [56] of 14 µM, a GI50 [57] of 1.52 µM and a TGI [57] of 8.03 µM.
